Source: patent US10774064B2 (Cadent Therapeutics, Inc., priority 2016, dated 2020)

target: T1, small-conductance Ca2+-activated K+ channels (SK channels, subtype 2) (Homo sapiens, UniProt Q9H2S1); test: whole-cell patch-clamp of ionic current through SK2 channels in HEK293 cells (SC100); format: cell-based; details: concentration that increases the basal current by 100%; HEK293 cells expressing SK2 channels
T1 construct: expressed in transfected cells; host or cells: HEK293
In short: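 Whole-cell patch-clamp recording of current in HEK293 cells expressing SK2 channels. SC100 is the compound concentration that increases basal current by 100%.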

SC100 | Structure (SMILES)
++ (++ means 200 nM-1000 nM) | Cc1cc(C)n(-c2cc(OCc3cnnn3C)cc(NC3CCC(F)(F)CC3)n2)n1 [Compound 268, N-(4,4-difluorocyclohexyl)-6-(3,5-dimethyl-1H-pyrazol-1-yl)-4-((1-methyl-1H-1,2,3-triazol-5-yl)methoxy)pyridin-2-amine]
++ (++ means 200 nM-1000 nM) | CC(=O)N1CCN(c2cc(-n3nc(C)cc3C)nc(NC3CCC(F)(F)CC3)n2)CC1 [Compound 101, 1-(4-(2-((4,4-difluorocyclohexyl)amino)-6-(3,5-dimethyl-1H-pyrazol-1-yl)pyrimidin-4-yl)piperazin-1-yl)ethan-1-one]
++ (++ means 200 nM-1000 nM) | CCC(=O)N1CC(Oc2cc(NC3CCC(F)(F)CC3)nc(-c3nc(CF)cs3)n2)C1 [Compound 341, 1-(3-((6-((4,4-difluorocyclohexyl)amino)-2-(4-(fluoromethyl)thiazol-2-yl)pyrimidin-4-yl)oxy)azetidin-1-yl)propan-1-one]
+ (+ means >1 uM) | Cc1cc(C)n(-c2nc3c(c(NC4CCC(F)(F)CC4)n2)CCN(CC#N)C3)n1 [Compound 122, 2-(4-((4,4-difluorocyclohexyl)amino)-2-(3,5-dimethyl-1H-pyrazol-1-yl)-5,8-dihydropyrido [3,4-d]pyrimidin-7(6H)-yl)acetonitrile]
++ (++ means 200 nM-1000 nM) | Cc1cc(C)n(-c2cc(N3C[C@H]4C[C@@H]3CN4)nc(NC3CCC(F)(F)CC3)n2)n1 [Compound 104, 4-((1R,4R)-2,5-diazabicyclo[2.2.1]heptan-2-yl)-N-(4,4-difluorocyclohexyl)-6-(3,5-dimethyl-1H-pyrazol-1-yl)pyrimidin-2-amine]
++ (++ means 200 nM-1000 nM) | Cc1cc(C)n(-c2nc3c(c(NC4CCC(F)(F)CC4)n2)CCN(Cc2ccccc2)C3)n1 [Compound 116]
+ (+ means >1 uM) | Cc1cc(C)n(-c2nc(CF)cc(NC3CCC(F)(F)CC3)n2)n1 [Compound 165, N-(4,4-difluorocyclohexyl)-2-(3,5-dimethyl-1H-pyrazol-1-yl)-6-(fluoromethyl)pyrimidin-4-amine]
+ (+ means >1 uM) | Cc1cc(C)n(-c2nc(NC3CCC(F)(F)CC3)cc(NC3COC3)n2)n1 [Compound 243, N4-(4,4-difluorocyclohexyl)-2-(3,5-dimethyl-1H-pyrazol-1-yl)-N6-(oxetan-3-yl)pyrimidine-4,6-diamine]
++ (++ means 200 nM-1000 nM) | Cc1cc(C)n(-c2nc(NC3CCC(F)(F)CC3)cc(N3CC(C)OC(C)C3)n2)n1 (stereo not drawn) [Compound 190, N-(4,4-difluorocyclohexyl)-2-(3,5-dimethyl-1H-pyrazol-1-yl)-6-(2,6-dimethylmorpholino)pyrimidin-4-amine]

same assay, conditions: whole-cell patch-clamp, HEK293 cells expressing SK2 channels; concentration that increases the basal current by 100%

SC100 (μM) | Structure (SMILES)
++ (++ means 200 nM-1000 nM) | Cc1nsc(-c2nc(NC3CCC(F)(F)CC3)cc(N3CCN4C(=O)OC[C@@H]4C3)n2)n1 [NSSy6251]
++ (++ means 200 nM-1000 nM) | Cc1csc(-c2nc(NC3CCC(F)(F)CC3)cc(OC3CCCn4nncc43)n2)n1 (stereo not drawn) [NSSy6007]
+ (+ means >1 uM) | Cc1csc(-c2nc(N[C@@H]3CCCC[C@H]3F)cc(N3CCOCC3)n2)n1 [IN11140-086-P1]
+++ (+++ means <200 nM) | Cc1csc(-c2cc(CNC=O)cc(NC3CCC(F)(F)CC3)n2)n1 [IN11133-037-P1]
+ (+ means >1 uM) | Cc1ccn(-c2cc(C#N)nc(NC3CCC(F)(F)CC3)n2)n1 [NSSy6722, 2-((4,4-difluorocyclohexyl)amino)-6-(3-methyl-1H-pyrazol-1-yl)pyrimidine-4-carbonitrile]
++ (++ means 200 nM-1000 nM) | Cc1cn(-c2cc(OC3COC3)cc(NC3CCC(F)(F)CC3)n2)nc1CF [NSSy5615, N-(4,4-difluorocyclohexyl)-6-(3-(fluoromethyl)-4-methyl-1H-pyrazol-1-yl)-4-(oxetan-3-yloxy)pyridin-2-amine]
+ (+ means >1 uM) | CN(C)C1CN(c2cc(Nc3ccc(F)cc3)nc(-n3ccc(CF)n3)c2)C1 [NSSy5713]
+ (+ means >1 uM) | OCCN(CCO)c1cc(NC2CCC(F)(F)CC2)nc(-n2ccc(CO)n2)n1 [IN11337-019-P1, 2,2′-((6-((4,4-difluorocyclohexyl)amino)-2-(3-(hydroxymethyl)-1H-pyrazol-1-yl)pyrimidin-4-yl)azanediyl)bis-(ethan-1-ol)]
+ (+ means >1 uM) | COc1cc(NC2CCC(F)(F)CC2)nc(-c2cccc(C)n2)n1 [NSSy6889]
++ (++ means 200 nM-1000 nM) | Cc1cc(C)n(-c2cc(CO)cc(NC3CCC(F)(F)CC3)n2)n1 [NSSy6355, (2-((4,4-difluorocyclohexyl)amino)-6-(3,5-dimethyl-1H-pyrazol-1-yl)pyridin-4-yl) methanol]
++ (++ means 200 nM-1000 nM) | Cc1ccn(-c2cc(NC3CCC(F)(F)CC3)cc(OCc3ncnn3C)n2)n1 [NSSy5638, N-(4,4-difluorocyclohexyl)-2-((1-methyl-1H-1,2,4-triazol-5-yl)methoxy)-6-(3-methyl-1H-pyrazol-1-yl)pyridin-4-amine]
+++ (+++ means <200 nM) | COCC1CN(c2cc(NC3CCC(F)(F)CC3)nc(-c3nc(C)cs3)n2)CCO1 (stereo not drawn) [NSSy5789]
+ (+ means >1 uM) | N#Cc1ccn(-c2nc(NC3CCC(F)(F)CC3)cc(N3CCOCC3)n2)n1 [IN11177-068-P1]
+ (+ means >1 uM) | Cc1ccnn1-c1cc(N2CCOCC2)nc(NC2CCC(F)(F)CC2)n1 [NSSy6525]
+ (+ means >1 uM) | Cc1csc(-c2ncc(CO)c(NC3CCC(F)(F)CC3)n2)n1 [IN11238-040-P1, (4-((4,4-difluorocyclohexyl)amino)-2-(4-methylthiazol-2-yl)pyrimidin-5-yl) methanol]
+ (+ means >1 uM) | COc1cc(NC2CCCCC2(F)F)nc(-c2nc(C)cs2)n1 (stereo not drawn) [IN11140-063-P1]
++ (++ means 200 nM-1000 nM) | Cc1csc(-c2cc(N3CCOCC3)cc(NC3CC=CCC3)n2)n1 (stereo not drawn) [NSSy5655, N-(cyclohex-3-en-1-yl)-6-(4-methylthiazol-2-yl)-4-morpholinopyridin-2-amine]
++ (++ means 200 nM-1000 nM) | CC(=O)N1CCC(c2cc(NC3CCC(F)(F)CC3)nc(-n3ccc(C4CC4)n3)n2)CC1 [IN11166-042-P1, 1-(4-(2-(3-cyclopropyl-1H-pyrazol-1-yl)-6-((4,4-difluorocyclohexyl)amino)pyrimidin-4-yl)piperidin-1-yl)ethan-1-one]
++ (++ means 200 nM-1000 nM) | Cc1cc(NC2CCC(F)(F)CC2)nc(-n2ccc(C(C)(C)C)n2)n1 [IN11177-029-P1]
+ (+ means >1 uM) | COc1cc(NC2CCC(F)(F)C2)nc(-c2nc(C)cs2)n1 (stereo not drawn) [IN11125-028-P1]
+ (+ means >1 uM) | COC(=O)c1nc(C)cc(NC2CCC(F)(F)CC2)n1 [IN11273-006-P1, methyl 4-((4,4-difluorocyclohexyl)amino)-6-methylpyrimidine-2-carboxylate]
+ (+ means >1 uM) | Cc1csc(-c2nc(CC3CCC(F)(F)CC3)cc(N3CCOCC3)n2)n1 [NSSy6263, 4-(6-((4,4-difluorocyclohexyl)methyl)-2-(4-methylthiazol-2-yl)pyrimidin-4-yl)morpholine]
+++ (+++ means <200 nM) | Cc1ccn(-c2cc(C(O)Cc3ccc(C#N)cn3)cc(NC3CCC(F)(F)CC3)n2)n1 (stereo not drawn) [NSSy6469, 6-(2-(2-((4,4-difluorocyclohexyl)amino)-6-(3-methyl-1H-pyrazol-1-yl)pyridin-4-yl)-2-hydroxyethyl)nicotinonitrile]

Further lines, the molecule ahead of its results:

Structure (SMILES) | SC100 (μM)
Cc1csc(-c2nc(NC3CCC(F)(F)CC3)cc(N3CCOCC3CO)n2)n1 (stereo not drawn) [IN10881-027-P1] | ++ (++ means 200 nM-1000 nM)
CC(=O)c1cc(NC2CCC(F)(F)CC2)nc(-n2nc(C)cc2C)n1 [IN10881-040-P1, 1-(6-((4,4-difluorocyclohexyl)amino)-2-(3,5-dimethyl-1H-pyrazol-1-yl)pyrimidin-4-yl)ethan-1-one] | + (+ means >1 uM)
Cc1ccn(-c2cc(CN)cc(NC3CCC(F)(F)CC3)n2)n1 [IN10967-063-P1, 4-(aminomethyl)-N-(4,4-difluorocyclohexyl)-6-(3-methyl-1H-pyrazol-1-yl)pyridin-2-amine] | ++ (++ means 200 nM-1000 nM)
COC(=O)NC(C)(C)c1cc(NC2CCC(F)(F)CC2)nc(-n2ccc(C)n2)c1 [IN11063-030-P1, methyl (2-(2-((4,4-difluorocyclohexyl)amino)-6-(3-methyl-1H-pyrazol-1-yl)pyridin-4-yl)propan-2-yl)carbamate] | + (+ means >1 uM)
Cc1ccn(-c2nc(NC3CCC(F)(F)CC3)cc(OCc3cnco3)n2)n1 [IN11054-012-P1] | ++ (++ means 200 nM-1000 nM)
Cc1ccn(-c2cc(NC3CCC(F)(F)CC3)cc(N3CCOCC3)n2)n1 [IN10973-098-P1, N-(4,4-difluorocyclohexyl)-2-(3-methyl-1H-pyrazol-1-yl)-6-morpholinopyridin-4-amine] | + (+ means >1 uM)
CC(=O)c1cc(NC2CCC(F)(F)CC2)cc(-c2nc(C)cs2)c1 [IN11104-059-P1, 1-(3-((4,4-difluorocyclohexyl)amino)-5-(4-methylthiazol-2-yl)phenyl) ethan-1-one] | + (+ means >1 uM)
Cc1cc(C)n(-c2nc(NC3CCC(F)(F)CC3)nc(N3CCOCC3)n2)n1 [IN10881-098-P1, N-(4,4-difluorocyclohexyl)-4-(3,5-dimethyl-1H-pyrazol-1-yl)-6-morpholino-1,3,5-triazin-2-amine] | + (+ means >1 uM)
Cc1csc(-c2nc(NC3CCC(F)(F)CC3)cc(C(C)C#N)n2)n1 (stereo not drawn) [IN11104-094-P1, 2-(6-((4,4-difluorocyclohexyl)amino)-2-(4-methylthiazol-2-yl)pyrimidin-4-yl) propanenitrile] | ++ (++ means 200 nM-1000 nM)
OCc1cc(NC2CCC(F)(F)CC2)nc(-n2ccc(C(F)(F)F)n2)n1 [IN11053-060-P1, (6-((4,4-difluorocyclohexyl)amino)-2-(3-(trifluoromethyl)-1H-pyrazol-1-yl)pyrimidin-4-yl) methanol] | ++ (++ means 200 nM-1000 nM)
